The text below walks through data of publication PMC6177235 (Bioorganic & medicinal chemistry, 2018).

In data set [1] the test system is mitochondrial transmembrane potential (MTP) in HT-29 cells. Description: Mitochondrial transmembrane potential. Type of data set: cell-based, human.
In a further data set the target is NF-κB p65 in HeLa cells (Homo sapiens, UniProt Q04206). Description: Enzyme-based ELISA assay for NF-κB inhibition. In kind it is cell-based. In general terms: An ELISA detects its analyte on a solid surface through an enzyme-linked reagent.
In data set [2] the test system is HT-29, MDA-MB-231, MDA-MB-435 and OVCAR3 human cancer cell lines. As to the kind of experiment: Cytotoxicity assays, statements on the whole panel of cell lines. The following applies: all cytotoxicity assays used.
Test in data set [3]: as above
The conditions noted are these: human.

The subject of a further data set is melanoma tumor. The conditions noted are these: cited from earlier work.
A short description of a further data set: in vitro. The following applies: human.
Data set [4] deals with OVCAR3 human ovarian cancer cell line. As to the kind of experiment: Cytotoxicity assay, OVCAR3 cells. In kind it is cell-based. The following applies: OVCAR-3, 72 h, read-out: IC50 toward OVCAR3 cells.
Data set [5] relates to DU145 human prostate cancer cells. The conditions noted are these: prostate tumor model; cited from earlier work.

Values after ≈ are worked out from the molar mass of the structure shown. “Also recorded” adds a separate entry of the source.

NF-κB p65 in HeLa cells, sequence (Q04206 whole entry): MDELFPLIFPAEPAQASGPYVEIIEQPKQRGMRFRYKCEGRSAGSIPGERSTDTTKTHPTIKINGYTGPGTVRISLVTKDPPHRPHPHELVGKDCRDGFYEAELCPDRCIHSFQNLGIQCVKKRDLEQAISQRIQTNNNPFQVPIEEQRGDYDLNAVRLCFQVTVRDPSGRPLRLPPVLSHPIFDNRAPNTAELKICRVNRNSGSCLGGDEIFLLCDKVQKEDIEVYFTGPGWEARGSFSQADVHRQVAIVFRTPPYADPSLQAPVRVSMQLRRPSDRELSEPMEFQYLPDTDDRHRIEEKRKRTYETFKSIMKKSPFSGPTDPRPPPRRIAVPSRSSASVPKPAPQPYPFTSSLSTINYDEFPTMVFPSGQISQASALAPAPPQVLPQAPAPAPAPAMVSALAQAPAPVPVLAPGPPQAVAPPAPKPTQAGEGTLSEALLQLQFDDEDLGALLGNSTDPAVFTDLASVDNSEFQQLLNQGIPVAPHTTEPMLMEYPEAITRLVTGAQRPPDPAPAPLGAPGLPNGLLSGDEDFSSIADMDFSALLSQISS

By IC50 is commonly meant the point on the concentration scale where inhibition reaches its midpoint. For the compound `C=C(C)[C@@H]1CC[C@]2(CO)CC[C@]3(C)[C@H](CC[C@@H]4[C@@]5(C)CC[C@H](O)C(C)(C)[C@@H]5CC[C@]43C)[C@@H]12` [Compound 12, (+)-betulin], the “activity in the MTP inhibition assay (in words)” value in data set [1] was “did not show any activities; also recorded: inactive”. At NF-κB p65 in HeLa cells, the “activity in the NF-κB inhibition assay (in words)” value is recorded as “exhibited activity”. Further, the “activity in the cytotoxicity assays (in words)” value in data set [2] is given as “did not show any activities”. Moreover, the half-maximal inhibitory concentration (IC50) at 72 h in data set [3] was greater than 10 µM.
With `C=C(C)[C@@H]1CC[C@]2(C(=O)OC)CC[C@]3(C(=O)O)[C@H](CC[C@@H]4[C@@]5(C)CC[C@H](O)C(C)(C)[C@@H]5CC[C@]43C)[C@@H]12` [Compound 3, (+)-melaleucic acid 28-methyl ester], the “activity in the NF-κB inhibition assay (in words)” value on NF-κB p65 in HeLa cells is recorded as “exhibited activity”. The compound also gave an IC50 at 72 h in data set [3] greater than 10 µM.
Consider `CC1(C)CC[C@]2(C(=O)O)CC[C@]3(C)C(=CC[C@@H]4[C@@]5(C)CC[C@H](O)C(C)(C)[C@@H]5CC[C@]43C)[C@@H]2C1` [Compound 8, (+)-oleanolic acid], for which the “activity in the MTP inhibition assay (in words)” value in data set [1] was “inactive”. Besides, in data set [2], the “activity in the cytotoxicity assays (in words)” value is on record as “Neither 8 nor 9 showed activity”.
`C=C(C)[C@@H]1CC[C@]2(C(=O)O)CC[C@]3(CO)[C@H](CC[C@@H]4[C@@]5(C)CC[C@H](O)C(C)(C)[C@@H]5CC[C@]43C)[C@@H]12` [Compound 6, (+)-cylicodiscic acid] yielded an IC50 at 72 h in data set [3] greater than 10 µM.
As to `C[C@H]1[C@H](C)CC[C@]2(CO)CC[C@]3(C)C(=CC[C@@H]4[C@@]5(C)CC[C@H](O)C(C)(C)[C@@H]5CC[C@]43C)[C@H]12` [Compound 10, (+)-uvaol], the “activity in the MTP inhibition assay (in words)” value in data set [1] is “did not show any activities”. Also, at NF-κB p65 in HeLa cells, the “activity in the NF-κB inhibition assay (in words)” value was “did not show any activities”. Further, the “activity in the cytotoxicity assays (in words)” value in data set [2] is “did not show any activities”.
With `C=C(C)[C@@H]1CC[C@]2(C(=O)O)CC[C@]3(C)[C@H](CC[C@@H]4[C@@]5(C)CC[C@H](OC(=O)/C=C/c6ccc(O)c(OC)c6)C(C)(C)[C@@H]5CC[C@]43C)[C@@H]12` [S13, (+)-3β-O−tram,-feruloylbetulinic acid], the “activity in the MTP inhibition assay (in words)” value in data set [1] is “active”. In addition, the “activity in the NF-κB inhibition assay (in words)” value at NF-κB p65 in HeLa cells is given as “exhibited activity”. This compound also returned a half-inhibitory concentration (IC50) at 72 h in data set [3] greater than 10 µM.
Turning to `C=C(C)[C@@H]1CC[C@]2(C(=O)O)CC[C@]3(C(=O)O)[C@H](CC[C@@H]4[C@@]5(C)CC[C@H](O)C(C)(C)[C@@H]5CC[C@]43C)[C@@H]12` [Compound 4, (+)-melaleucic acid], the IC50 at 72 h in data set [3] is greater than 10 µM.
In the case of `C=C(C)[C@@H]1CC[C@]2(C(=O)O)CC[C@]3(C)[C@H](CC[C@@H]4[C@@]5(C)C[C@@H](O)[C@H](O)C(C)(C)[C@@H]5CC[C@]43C)[C@@H]12` [Compound 5, (+)-alphitolic acid], the “activity in the NF-κB inhibition assay (in words)” value at NF-κB p65 in HeLa cells is listed as “exhibited activity”. Moreover, the 50% inhibitory concentration (IC50) at 72 h in data set [3] is greater than 10 µM.
Take `C=C(C)[C@@H]1CC[C@]2(C(=O)O)CC[C@]3(C)[C@H](CC[C@@H]4[C@@]5(C)CC[C@H](O)C(C)(C)[C@@H]5CC[C@]43C)[C@@H]12` [Compound 9, (+)-betulinic acid]: the “activity in the MTP inhibition assay (in words)” value in data set [1] was “same potency as 1; also recorded: active”. The “activity in the cytotoxicity assays (in words)” value in data set [2] is “Neither 8 nor 9 showed activity”. Also, in the data set on melanoma tumor (mice), the “melanoma tumor growth in vivo” value is recorded as “inhibit completely”. The “toxicity observed in mice” value with melanoma tumor (mouse, in vivo) is recorded as “without any obvious toxicity”.
Regarding `CC1(C)CC[C@]2(CO)CC[C@]3(C)C(=CC[C@@H]4[C@@]5(C)CC[C@H](O)C(C)(C)[C@@H]5CC[C@]43C)[C@@H]2C1` [Compound 11, (+)-erythrodiol], the “activity in the MTP inhibition assay (in words)” value in data set [1] is recorded as “did not show any activities”. Moreover, the “activity in the NF-κB inhibition assay (in words)” value at NF-κB p65 in HeLa cells is listed as “did not show any activities”. The “activity in the cytotoxicity assays (in words)” value in data set [2] was “did not show any activities”.
In “in vitro”, `C=C(C)[C@@H]1CC[C@]2(C(=O)O)CC[C@]3(C)[C@H](CC[C@@H]4[C@@]5(C)C[C@@H](O)[C@H](OC(=O)/C=C/c6ccc(O)cc6)C(C)(C)[C@@H]5CC[C@]43C)[C@@H]12` [Compound 7, (+)-3-O−β-trans-p−coumaroylalphitolic acid] yielded an IC50 at 72 h greater than 10 µM. In addition, the “activity in the NF-κB inhibition assay (in words)” value at NF-κB p65 in HeLa cells is “exhibited activity”.
`C[C@H]1[C@H](C)CC[C@]2(C(=O)O)CC[C@]3(C)C(=CC[C@@H]4[C@@]5(C)CC[C@H](O)C(C)(C)[C@@H]5CC[C@]43C)[C@H]12` [Compound 1, (+)-ursolic acid]: the concentration for half-maximal inhibition (IC50) in data set [4] came out at 12.9 µg/mL (≈ 28.2 µM). Further, the mouse body weight entry in data set [5] is given as “without significant decrease”.
